# From patent US20210346524A1, “FUSOGENIC LIPOSOMES FOR SELECTIVE IMAGING OF TUMOR CELLS” (APA- Advanced Technologies Ltd., priority 2018, published 2021)
# Assay: Solubilization of fluorophore in aqueous hydration solution for liposome encapsulation
# Type: physicochemical
smiles,measurement,value
"CC1(C)C(/C=C/C=C/C=C/C=C2\N(CCCCS(=O)(=O)O)c3ccc4ccccc4c3C2(C)C)=[N+](CCCCS(=O)(=O)[O-])c2ccc3ccccc3c21 [ICG, indocyanine green]",behaviour in phosphate buffered saline (PBS),creates aggregates
